From patent publication EP4813383A1, “USE OF TAFAMIDIS AND PHARMACEUTICALLY ACCEPTABLE SALT THEREOF IN PREVENTION, ALLEVIATION, OR TREATMENT OF DISEASES ASSOCIATED WITH HIF-2a” (Huaya Jiyuan (Shenzhen) Pharmaceutical Co., Ltd., priority 2024, dated 2025)
Where a name gives a salt, the structure may show the parent alone.

Biological target: T1, HIF-2α (Homo sapiens, UniProt Q99814)
T1 construct: 786-O is a renal carcinoma cell line that predominantly expresses HIF-2α and lacks functional HIF-1α; endogenous in cells; host or cells: 786-O cells stably carrying an HRE-driven luciferase reporter
T1 sequence (Q99814 whole entry): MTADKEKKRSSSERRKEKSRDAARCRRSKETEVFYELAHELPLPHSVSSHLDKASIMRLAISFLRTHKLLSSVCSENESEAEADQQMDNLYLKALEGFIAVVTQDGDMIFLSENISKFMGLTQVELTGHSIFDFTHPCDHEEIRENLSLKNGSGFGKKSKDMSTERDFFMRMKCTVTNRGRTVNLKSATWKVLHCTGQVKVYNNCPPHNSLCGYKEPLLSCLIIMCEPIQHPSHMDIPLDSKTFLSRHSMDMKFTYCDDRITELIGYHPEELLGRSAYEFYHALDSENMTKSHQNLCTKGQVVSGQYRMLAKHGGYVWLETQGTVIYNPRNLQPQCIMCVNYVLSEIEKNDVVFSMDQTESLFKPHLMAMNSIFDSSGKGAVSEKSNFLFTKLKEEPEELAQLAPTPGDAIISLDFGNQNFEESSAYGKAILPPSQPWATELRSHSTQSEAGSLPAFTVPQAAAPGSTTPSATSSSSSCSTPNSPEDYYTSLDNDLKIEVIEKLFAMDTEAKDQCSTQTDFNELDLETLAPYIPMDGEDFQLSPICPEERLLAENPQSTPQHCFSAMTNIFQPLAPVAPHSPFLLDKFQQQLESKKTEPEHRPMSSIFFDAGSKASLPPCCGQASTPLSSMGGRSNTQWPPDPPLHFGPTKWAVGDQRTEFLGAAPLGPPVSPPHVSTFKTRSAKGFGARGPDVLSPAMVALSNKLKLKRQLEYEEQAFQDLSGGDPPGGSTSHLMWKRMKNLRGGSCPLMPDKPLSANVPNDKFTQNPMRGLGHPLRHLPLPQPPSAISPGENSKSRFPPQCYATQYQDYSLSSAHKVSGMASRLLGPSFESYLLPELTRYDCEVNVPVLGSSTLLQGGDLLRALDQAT
T1 sequence (P27540 whole entry partner): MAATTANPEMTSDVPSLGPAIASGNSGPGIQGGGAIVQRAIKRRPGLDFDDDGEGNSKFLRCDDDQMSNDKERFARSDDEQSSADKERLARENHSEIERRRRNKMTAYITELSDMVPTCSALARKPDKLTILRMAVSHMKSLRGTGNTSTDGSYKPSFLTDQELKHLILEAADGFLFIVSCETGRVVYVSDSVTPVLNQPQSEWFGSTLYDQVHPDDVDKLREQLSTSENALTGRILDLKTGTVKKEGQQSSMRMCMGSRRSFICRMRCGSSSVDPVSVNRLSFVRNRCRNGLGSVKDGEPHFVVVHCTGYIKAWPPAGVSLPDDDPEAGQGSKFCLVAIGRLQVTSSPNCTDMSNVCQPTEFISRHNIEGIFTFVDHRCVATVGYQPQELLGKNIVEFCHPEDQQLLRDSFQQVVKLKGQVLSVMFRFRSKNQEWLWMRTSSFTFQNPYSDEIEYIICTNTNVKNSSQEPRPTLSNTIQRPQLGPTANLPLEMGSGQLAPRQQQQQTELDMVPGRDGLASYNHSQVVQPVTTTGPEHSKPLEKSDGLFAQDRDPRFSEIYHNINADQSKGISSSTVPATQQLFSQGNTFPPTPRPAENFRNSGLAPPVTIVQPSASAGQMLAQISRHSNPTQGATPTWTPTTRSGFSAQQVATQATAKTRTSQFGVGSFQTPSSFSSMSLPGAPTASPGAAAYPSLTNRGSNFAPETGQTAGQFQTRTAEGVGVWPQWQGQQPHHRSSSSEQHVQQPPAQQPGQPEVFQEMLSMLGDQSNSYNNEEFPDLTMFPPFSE
Assay: Luciferase reporter gene assay (HRE-driven luciferase in stably transfected 786-O cells)
Assay type: cell-based
From the text: Experimental principles: 786-O is a renal carcinoma cell line that predominantly expresses HIF-2α and lacks functional HIF-1α. This characteristic makes 786-O cells an ideal model for studying HIF-2α transcriptional activity and related signaling pathways. In the luciferase reporter gene assay, a 786-O monoclonal cell line that stably expresses hypoxia response element (HRE)-driven luciferase (Luc) activity is obtained through puromycin selection. The HIF-2α agonist promotes dimerization of HIF-2α and HIF-β, and activates an HRE promoter. By measuring fluorescence intensity, luciferase activity can be determined, thereby assessing the ability of the HIF-2α agonist to promote transcription.
Experimental method: A total of 6000 stably transfected 786-O cells stably containing HRE and Luc sequences are seeded in each well of a 96-well plate, and 100 µL of RPMI-1640 culture medium containing 10% fetal bovine serum is added to each well. After 24 hours, a compound at a corresponding concentration is added to each well. A blank group is set as a control. Only a DMSO solvent is added in the well of the blank group. For initial compound screening, both tafamidis and tafamidis meglumine are tested at two concentrations: 2 µM and 20 µM. For concentration-gradient determination, each concentration is tested in triplicate. After co-incubation for 24 hours, the culture medium is discarded, and 20 µL of firefly luciferase reporter gene cell lysis buffer (RG126M, Beyotime) is added to each well. The 96-well plate is shaken on a microplate shaker for 10 minutes. After shaking, 10 µL of lysate is transferred into a white opaque plate, and then 10 µL of Steady-Lumi™ firefly luciferase assay reagent (RG058S, Beyotime) is added to each well. Finally, luminescence is measured using a microplate reader (Agilent Synergy Neo2). E20 represents the effect of the compound at a 20 µM concentration, and is calculated as: E20 = fluorescence value of the 20 µM well ÷ fluorescence value of the blank control × 100%. E2 represents the effect of the compound at a 2 µM concentration, and is calculated as: E2 = fluorescence value of the 2 µM well ÷ fluorescence value of the blank control × 100%. EC50 is the compound concentration at which the agonistic efficacy is increased by 50% relative to the blank control. The agonistic efficacy of a compound is determined by calculating the concentration (EC50) required to achieve a 50% increase in the fluorescence activity relative to the blank control and a maximum activation percentage (Emax). The maximum activation percentage (Emax) of an agonist refers to a ratio, expressed as a percentage, of the fluorescence value corresponding to the maximal effect (observed maximal response) induced when the agonist concentration reaches receptor-binding saturation in a particular receptor system, to the fluorescence value of the receptor system in the absence of agonist. In this experiment, Vyndaqel is directly used in place of tafamidis meglumine.

SMILES: O=C(O)c1ccc2nc(-c3cc(Cl)cc(Cl)c3)oc2c1 [tafamidis meglumine, 1-deoxy-1-(methylamino)-D-glucitol salt of 2-(3,5-dichlorophenyl)-1,3-benzoxazole-6-carboxylic acid]
- agonistic efficacy at a 2 µM concentration (E2) (2 µM, 24 hours co-incubation, fluorescence value as % of blank control (DMSO)): 122%
- agonistic efficacy at a 20 µM concentration (E20) (20 µM, 24 hours co-incubation, fluorescence value as % of blank control (DMSO)): 223%
- EC50 (EC50, concentration required for a 50% increase in fluorescence activity relative to the blank control, 24 hours): 970 nM
- Emax (maximum activation percentage) (maximal response as % of fluorescence without agonist): 228%
